The results in this text go back to ChEMBL document CHEMBL3880427, “P70 S6 kinase inhibitors” (2012).

What all share (assay type): functional, HCT-116
Experiment [1] can be described thus: Antitumor activity against human HCT116 cells xenografted in athymic nude mouse assessed as tumor volume at 60 mg/kg, po bid administered for 21 days measured on day 8 post last dose (reference value: 38.5 +/- 4.1 mm'3). (In general: Xenograft models place foreign cells or tissue in a host animal.)
Experiment [2] in a line: Antitumor activity against human HCT116 cells xenografted in athymic nude mouse assessed as tumor volume at 30 mg/kg, po bid administered for 21 days measured on day 20 post last dose (reference value: 287.1 +/- 31.9 mm'3).
Experiment [3] is described as follows: Antitumor activity against human HCT116 cells xenografted in athymic nude mouse assessed as tumor volume at 30 mg/kg, po bid administered for 21 days measured on day 8 post last dose (reference value: 38.5 +/- 4.1 mm'3).
Experiment [4] is described as follows: Antitumor activity against human HCT116 cells xenografted in athymic nude mouse assessed as tumor volume at 60 mg/kg, po qd administered for 21 days measured on day 27 post last dose (Rvb= 545 +/- 41.1 mm'3).
Experiment [5] can be described thus: Antitumor activity against human HCT116 cells xenografted in athymic nude mouse assessed as tumor volume at 60 mg/kg, po qd administered for 21 days measured on day 8 post last dose (reference value: 38.5 +/- 4.1 mm'3).
Experiment [6] in a line: Antitumor activity against human HCT116 cells xenografted in athymic nude mouse assessed as tumor volume at 60 mg/kg, po qd administered for 21 days measured on day 20 post last dose (reference value: 287.1 +/- 31.9 mm'3).
Experiment [7] in a line: Antitumor activity against human HCT116 cells xenografted in athymic nude mouse assessed as tumor volume at 60 mg/kg, po bid administered for 21 days measured on day 27 post last dose (Rvb= 545 +/- 41.1 mm'3).
A short description of experiment [8]: Antitumor activity against human HCT116 cells xenografted in athymic nude mouse assessed as tumor volume at 60 mg/kg, po bid administered for 21 days measured on day 20 post last dose (reference value: 287.1 +/- 31.9 mm'3).
A short description of experiment [9]: Antitumor activity against human HCT116 cells xenografted in athymic nude mouse assessed as tumor volume at 60 mg/kg, po bid administered for 21 days measured on day 23 post last dose (reference value: 402.2 +/- 43.1 mm'3).
Experiment [10] can be described thus: Antitumor activity against human HCT116 cells xenografted in athymic nude mouse assessed as tumor volume at 60 mg/kg, po qd administered for 21 days measured on day 16 post last dose (reference value: 163.1 +/- 25.7 mm'3).
A short description of experiment [11]: Antitumor activity against human HCT116 cells xenografted in athymic nude mouse assessed as tumor volume at 30 mg/kg, po bid administered for 21 days measured on day 23 post last dose (reference value: 402.2 +/- 43.1 mm'3).
A short description of experiment [12]: Antitumor activity against human HCT116 cells xenografted in athymic nude mouse assessed as tumor volume at 30 mg/kg, po bid administered for 21 days measured on day 16 post last dose (reference value: 163.1 +/- 25.7 mm'3).
The nature of experiment [13]: Antitumor activity against human HCT116 cells xenografted in athymic nude mouse assessed as tumor volume at 60 mg/kg, po bid administered for 21 days measured on day 16 post last dose (reference value: 163.1 +/- 25.7 mm'3).
A short description of experiment [14]: Antitumor activity against human HCT116 cells xenografted in athymic nude mouse assessed as tumor volume at 30 mg/kg, po bid administered for 21 days measured on day 13 post last dose (reference value: 100.9 +/- 13.7 mm'3).
The nature of experiment [15]: Antitumor activity against human HCT116 cells xenografted in athymic nude mouse assessed as tumor volume at 60 mg/kg, po qd administered for 21 days measured on day 23 post last dose (reference value: 402.2 +/- 43.1 mm'3).
The nature of experiment [16]: Antitumor activity against human HCT116 cells xenografted in athymic nude mouse assessed as tumor volume at 30 mg/kg, po bid administered for 21 days measured on day 27 post last dose (Rvb= 545 +/- 41.1 mm'3).
Experiment [17] can be described thus: Antitumor activity against human HCT116 cells xenografted in athymic nude mouse assessed as tumor volume at 60 mg/kg, po qd administered for 21 days measured on day 13 post last dose (reference value: 100.9 +/- 13.7 mm'3).
The nature of experiment [18]: Antitumor activity against human HCT116 cells xenografted in athymic nude mouse assessed as tumor volume at 60 mg/kg, po bid administered for 21 days measured on day 13 post last dose (reference value: 100.9 +/- 13.7 mm'3).

For `Cl.FC(F)(F)c1cccc(-c2c[nH]c(C3CCN(c4ncnc5[nH]ncc45)CC3)n2)c1`, the Activity in experiment [1] worked out at 28.8 mm3; in experiment [2], 134.6 mm3; in experiment [3] it was 36.5 mm3; in [4], 252.7 mm3; in [5] it was 30.6 mm3; in experiment [6], 142.5 mm3. The Activity in [7] came to 280 mm3; in experiment [8], 139 mm3; in [9] it was 188.4 mm3; in [10], 85 mm3; in experiment [11], 192.7 mm3; in experiment [12], 90.9 mm3. For the same compound, the Activity in experiment [13] is 72.1 mm3; in experiment [14] it was 58.7 mm3; in experiment [15] it was 194.5 mm3; in experiment [16] it was 296.3 mm3; in [17], 57.8 mm3; in [18] it was 42.1 mm3.
